Measured values published in patent US20260174875A1 (Novo Nordisk A/S, priority 2023, published 2026).
Like-named read-outs stand apart in the source and are kept apart here. Numbered stars: 1 amine (or outer) side, 2 acyl side, 3 side chain; on linkers, the order of the positions; unused ones are H or OH. Square brackets hold non-standard residues; d marks the D form. Side chains are listed from the residue outwards. * marks the point of attachment. C20 diacid = O=C(O)CCCCCCCCCCCCCCCCCCC(=O)*; C18 diacid = O=C(O)CCCCCCCCCCCCCCCCC(=O)*; C16 diacid = O=C(O)CCCCCCCCCCCCCCC(=O)*; γGlu = O=C(O)[C@H](CCC(=O)[*:2])N[*:1]; AEEA = NCCOCCOCC(=O)O; Aib = CC(C)(N)C(=O)O

Columns and labels:
Assay type in all cases: cell-based
[1] = biological target: T1, human GLP-1 receptor (hGLP-1R) (Homo sapiens, UniProt P43220); experiment: GLP-1 receptor assay, method A (CRE-luciferase reporter, BHK cells)
T1 construct: expressed in transfected cells
Protocol: (§1) To assess how the activation of the receptors is potentially influenced by the presence of human serum albumin (HSA), the in vitro assays were performed in the absence of HSA and presence of 1% (w/v) HSA.
Cells at approximately 80-90% confluence were washed once in PBS (Gibco 14190-094) and loosened from the cell flasks with Versene (Gibco, 15040-033). […] Cells were aliquoted and stored at −180° C. until use.
(§2) The assay buffer consisted of DMEM without phenol red (Gibco, 11880-028) supplemented with 1× GlutaMAX (Gibco, 35050-038), 10 mM HEPES (Gibco, 15630-056), 1% (w/v) ovalbumin (Sigma, A5503) and 0.1% (v/v) Pluronic F-68 (Gibco, 24040-032) either with HSA or without HSA (Sigma, A9511).
Frozen stocks of hGLP-1R BHK CRE-Luc cells were thawed in a 37° C. water bath, washed once in PBS (Gibco 14190-094) and diluted to 1.5×10^6 (1.5E+6) cells/mL in assay buffer with or without 2% (w/v) HSA (Sigma, A9511). […] The assay plates were incubated for 3 hours at 37° C. in 5% CO2, left at room temperature for 5 minutes after which 100 μL steadylite Plus™ (PerkinElmer/Revvity, 6066759) was added to each well. Plates were sealed and incubated at room temperature with gentle shaking for 30 minutes while protected from light. Luminescence was detected on a luminescence plate reader e.g., a Synergy 2 (BioTek).

[2] = biological target: T2, human GIP receptor (hGIPR) (Homo sapiens, UniProt P48546); experiment: GIP receptor assay, method A (CRE-luciferase reporter, BHK cells)
T2 construct: expressed in transfected cells
T2 sequence (P48546 22-466): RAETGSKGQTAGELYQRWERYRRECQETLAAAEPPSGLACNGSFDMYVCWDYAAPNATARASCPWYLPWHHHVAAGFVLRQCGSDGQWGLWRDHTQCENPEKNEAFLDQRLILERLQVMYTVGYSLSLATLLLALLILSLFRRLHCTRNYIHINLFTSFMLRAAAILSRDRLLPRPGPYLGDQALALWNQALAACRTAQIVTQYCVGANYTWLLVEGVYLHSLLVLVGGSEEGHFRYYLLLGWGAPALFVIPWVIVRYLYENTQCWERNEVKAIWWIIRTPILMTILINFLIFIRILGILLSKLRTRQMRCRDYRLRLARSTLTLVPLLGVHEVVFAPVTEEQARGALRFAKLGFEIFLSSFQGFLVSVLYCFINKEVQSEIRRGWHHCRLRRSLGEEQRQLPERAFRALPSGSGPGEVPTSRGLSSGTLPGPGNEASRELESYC
Protocol: To assess how the activation of the receptors is potentially influenced by the presence of human serum albumin (HSA), the in vitro assays were performed in the absence of HSA and presence of 1% (w/v) HSA. Unless stated otherwise the reference to the “GIP receptor assay as described in Example 4” throughout the specification shall refer to the described herein assay procedure method A (hGIPR assay) in the absence of HSA.
Activation of the human GIP receptor leads to increased intra-cellular concentrations of cyclic AMP (cAMP) and the consequent transcription activation from promoters containing multiple copies of the cAMP response element (CRE). It is thus possible to measure GIP receptor activity using a CRE-luciferase reporter gene introduced into Baby Hamster Kidney (BHK) cells co-expressing the human GIP receptor.
Cells at about 80-90% confluency were washed once with PBS (Gibco 14190-094) and detached from the cell flasks with Versene (Gibco, 15040-066). After centrifugation, the cells were counted, resuspended and diluted to approximately 1.5-3.0×10^6 (1.5E+6 to 3.0E+6) cells/mL in Recovery Cell Culture Freezing Medium (Gibco, 12648-010) and stored at −180° C. in suitable aliquots until use.
as §2
On the day before the assay hGIPR BHK Cre-Luc cells were thawed and plated out in 96 well Culture Plates (PerkinElmer/Revvity, 6005680) at 5.0×10^3 (5.0E+3) cells/well in growth medium as described above. The plates were then incubated for 21-23 hours at 37° C. with 5% CO2. On the day of the assay GLP-1-/GIP-/amylin-receptor tri-agonists or reference compounds were diluted in assay buffer using a 7-point, 10-fold titration plus a blank (absence of compound). Each compound was diluted and tested in duplicates in each experiment. In the plates containing the cells the growth medium was removed, and cells were washed twice with 100 μL PBS (Gibco 14190-094). 50 μL of the test compound dilutions were added to the plates containing cells preceded by 50 μL assay buffer with or without 2% (w/v) HSA (Sigma, A9511). The cell plates were incubated for 3 hours in a 5% CO2 incubator at 37° C. The plates were then transferred to room temperature followed by addition of 100 μL steadylite Plus™ (PerkinElmer/Revvity, 6066759). The plates were sealed and shaken for 30 minutes at room temperature while protected from light. Finally, luminescence (as an indicator of receptor activation) was measured on a Mithras reader (Berthold Technologies, DE). The EC50-values [pM] were calculated by non-linear curve fitting applying a four-parameter logistic model (Hill slope=“shared value for all datasets”) using GraphPad Prism (GraphPad Software, Boston, MA, USA).

[3] = biological target: T3, human amylin receptor (hAMYR3) (Homo sapiens, UniProt O60896+P30988); experiment: Amylin receptor assay, method A (CRE-luciferase reporter, BHK cells)
T3 construct: host or cells: BHK cells (Hollex-1 line expressing hCTR(a) and CRE-Luc), further transfected with human RAMP3
Protocol: as §1
It is thus possible to measure hAMYR3 activity using a CRE-luciferase reporter gene introduced into Baby Hamster Kidney (BHK) cells co-expressing the hAMYR3.
The cell line was further transfected with human receptor modifying protein 3 (RAMP3) using standard methods.
After centrifugation, the cell pellet was resuspended and diluted to approximately 2.5-4.0×10^6 (2.5E+6 to 4.0E+6) cells/mL in Recovery™ Cell Culture Freezing Medium (Gibco, 12648-010). Cells were aliquoted and stored at −180° C. until use.
as §2, with “15630-056) and” for “15630-056),”, “either with or without” for “and”, “24040-032) and” for “24040-032)”, “with” for “with HSA”
The plate was incubated over night at 37° C. in 5% CO2. […] Luminescence was detected on a luminescence plate reader e.g., a Synergy 2 (BioTek).

[4] = hGLP-1R Potency, 1% HSA, EC50, method A, in the presence of 1% HSA
[5] = method A, absence of HSA, read-out: hGLP-1R Potency, no HSA, EC50
[6] = hGIPR Potency, 1% HSA, EC50, method A, in the presence of 1% HSA
[7] = method A, absence of HSA, read-out: hGIPR Potency, no HSA, EC50
[8] = hAMYR3 Potency, 1% HSA, EC50, method A, in the presence of 1% HSA
[9] = method A, absence of HSA, read-out: hAMYR3 Potency, no HSA, EC50

T3 sequence (P30988 25-474): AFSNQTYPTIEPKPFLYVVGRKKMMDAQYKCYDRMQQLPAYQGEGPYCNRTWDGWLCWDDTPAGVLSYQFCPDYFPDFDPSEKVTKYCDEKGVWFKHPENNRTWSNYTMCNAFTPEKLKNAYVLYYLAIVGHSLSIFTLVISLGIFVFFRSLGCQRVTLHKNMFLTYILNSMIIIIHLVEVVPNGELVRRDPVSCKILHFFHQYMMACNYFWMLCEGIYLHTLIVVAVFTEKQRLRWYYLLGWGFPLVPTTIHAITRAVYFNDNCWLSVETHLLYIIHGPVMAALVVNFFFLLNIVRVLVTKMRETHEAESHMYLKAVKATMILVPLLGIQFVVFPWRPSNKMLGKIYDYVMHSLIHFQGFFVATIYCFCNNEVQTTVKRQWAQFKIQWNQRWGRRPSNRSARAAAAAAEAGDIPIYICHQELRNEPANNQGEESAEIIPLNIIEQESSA
T3 sequence (O60896 24-148): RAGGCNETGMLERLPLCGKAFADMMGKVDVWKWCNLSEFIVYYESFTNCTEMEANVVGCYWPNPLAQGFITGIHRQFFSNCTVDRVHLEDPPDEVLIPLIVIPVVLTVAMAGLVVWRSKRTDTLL
T1 sequence (P43220 24-463): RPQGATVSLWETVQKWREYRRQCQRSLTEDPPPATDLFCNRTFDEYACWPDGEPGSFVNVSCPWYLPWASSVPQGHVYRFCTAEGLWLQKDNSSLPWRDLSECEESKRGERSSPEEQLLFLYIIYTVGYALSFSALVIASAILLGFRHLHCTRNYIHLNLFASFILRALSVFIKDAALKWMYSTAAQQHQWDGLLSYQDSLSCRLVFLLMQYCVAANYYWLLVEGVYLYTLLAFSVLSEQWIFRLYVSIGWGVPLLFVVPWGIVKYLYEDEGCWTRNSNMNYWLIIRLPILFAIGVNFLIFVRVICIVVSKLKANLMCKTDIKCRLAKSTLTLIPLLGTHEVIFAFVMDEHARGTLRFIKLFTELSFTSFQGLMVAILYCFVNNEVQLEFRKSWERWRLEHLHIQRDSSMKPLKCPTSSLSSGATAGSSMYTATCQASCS

| Substance | EC50 [1, 4] | EC50 [1, 5] | EC50 [2, 6] | EC50 [2, 7] | EC50 [3, 8] | EC50 [3, 9] |
| --- | --- | --- | --- | --- | --- | --- |
| Y[Aib]EGTFTSDYSILLEEQAAREFIEWLLAGGPSGGEASHLSTAQTQRLSAELHK([AEEA-AEEA-γGlu-C18 diacid])LATLPRTETGSGSP-NH2 [Compound 74] | 141 pM | 29.8 pM | 18.7 pM | 2.51 pM | 134 pM | 2.73 pM |
| Y[Aib]EGTFTSDYSILLEEQAAREFIEWLLAGGPSK([AEEA-AEEA-γGlu-C16 diacid])GASELSTAALGRLSAELHRLATLPRTETGSGSP-NH2 [Compound 20] |  | 40.6 pM |  | 4.82 pM |  | 3.65 pM |
| Y[Aib]EGTFTSDYSILLEEQAAREFIEWLLAGGPSK([AEEA-AEEA-γGlu-C18 diacid])GAEASELSTAALGRLSAELHELATLPRTETGSGSP-NH2 [Compound 32] |  | 27.6 pM |  | 8.09 pM |  | 10.1 pM |
| Y[Aib]EGTFTSDYSILLEEQAAREFIEWLLAGGPSK([AEEA-AEEA-γGlu-C18 diacid])GALAQTLAQTLASELSTAALGRLSAELHELATLPRTETGSGSP-NH2 [Compound 21] |  | 41.2 pM |  | 8.63 pM |  | 12 pM |
| Y[Aib]EGTFTSDYSILLEEQAAREFIEWLLAGGPSK([AEEA-AEEA-γGlu-C18 diacid])GALAQTLFVNQASELSTAALGRLSAELHELATLPRTETGSGSP-NH2 [Compound 24] |  | 51.5 pM |  | 2.34 pM |  | 4.24 pM |
| Y[Aib]EGTFTSDYSILLEEQAAREFIEWLLAGGPSK([AEEA-AEEA-γGlu-C18 diacid])GAPPEASELSTAALGRLSAELHELATLPRTETGSGSP-NH2 [Compound 33] |  | 32.1 pM |  | 3.11 pM |  | 10.3 pM |
| Y[Aib]EGTFTSDYSILLEEQAAREFIEWLLAGGPSK([AEEA-AEEA-γGlu-C18 diacid])GAPPPSGGGGASELSTAALGRLSAELHRLATLPRTETGSGSP-NH2 [Compound 13] |  | 37.9 pM |  | 2.4 pM |  | 2.26 pM |
| Y[Aib]EGTFTSDYSILLEEQAAREFIEWLLAGGPSK([AEEA-AEEA-γGlu-C18 diacid])GEASELSTAALARLSAELHRLATLPRTETGSGSP-NH2 [Compound 28] |  | 96 pM |  | 3.5 pM |  | 2.28 pM |
| Y[Aib]EGTFTSDYSILLEEQAAREFIEWLLAGGPSK([AEEA-AEEA-γGlu-C18 diacid])GEASELSTAALGRLSAELHRLATLPRTETGSGSP-NH2 [Compound 19] |  | 57.9 pM |  | 9.44 pM |  | 4.24 pM |
| Y[Aib]EGTFTSDYSILLEEQAAREFIEWLLAGGPSK([AEEA-AEEA-γGlu-C18 diacid])GEASELSTAALGRLSAELHYLATLPRTETGSGSP-NH2 [Compound 29] |  | 27.1 pM |  | 2.62 pM |  | 3.09 pM |
| Y[Aib]EGTFTSDYSILLEEQAAREFIEWLLAGGPSK([AEEA-AEEA-γGlu-C18 diacid])GEASELSTAQLGRLSAELHRLATLPRTETGSGSP-NH2 [Compound 27] |  | 26.2 pM |  | 2.11 pM |  | 3.82 pM |
| Y[Aib]EGTFTSDYSILLEEQAAREFIEWLLAGGPSK([AEEA-AEEA-γGlu-C18 diacid])GGQEPGQEPGEASHLSTAQTQRLSAELHELATLPRTETGSGSP-NH2 [Compound 39] | 1930 pM | 23.7 pM | 352 pM | 1.62 pM | 140 pM | 5.75 pM |

More lines, in order of falling EC50 [1, 5], values ahead:

| EC50 [1, 4] | EC50 [1, 5] | EC50 [2, 6] | EC50 [2, 7] | EC50 [3, 8] | EC50 [3, 9] | Substance |
| --- | --- | --- | --- | --- | --- | --- |
|  | 23.3 pM |  | 1.63 pM |  | 5.49 pM | Y[Aib]EGTFTSDYSILLEEQAAREFIEWLLAGGPSK([AEEA-AEEA-γGlu-C18 diacid])GGGGEGGGEGEASHLSTAQTQRLSAELHELATLPRTETGSGSP-NH2 [Compound 40] |
|  | 21.7 pM |  | 1.7 pM |  | 6.81 pM | Y[Aib]EGTFTSDYSILLEEQAAREFIEWLLAGGPSK([AEEA-AEEA-γGlu-C18 diacid])GEASHLSTAQTQRLSAELHELATLPRTETGSGSP-NH2 [Compound 34] |
| 162 pM | 16.8 pM | 30 pM | 3.62 pM | 595 pM | 3.73 pM | Y[Aib]EGTFTSDYSILLEEQAAREFIEWLLAGGPSGGGGEASHLSTAQTQRLSAELHK([AEEA-AEEA-γGlu-C20 diacid])LATLPRTETGSGSP-NH2 [Compound 96] |
|  | 15.3 pM |  | 1.2 pM |  | 5.17 pM | Y[Aib]EGTFTSDYSILLEEQAAREFIEWLLAGGPSK([AEEA-AEEA-γGlu-C18 diacid])GALAQTLGTNEASELSTAALGRLSAELHELATLPRTETGSGSP-NH2 [Compound 23] |
| 15 pM | 4.57 pM | 11.5 pM | 4.01 pM | 59.9 pM | 2.48 pM | H[Aib]HGTFTSDYSILLEEQAAREFIEWLLAGGPSSGALQAPGQAPLASHLSTAQTARLSAELHK([AEEA-AEEA-γGlu-C18 diacid])LATLPRTETGSGSP-NH2 [Compound 108] |
| 38.6 pM | 4.16 pM | 32.5 pM | 5.4 pM | 183 pM | 5.45 pM | H[Aib]HGTFTSDYSILLEEQAAREFIEWLLAGGPSSGEASHLSTAALGRLSAELHRLATLPK([AEEA-AEEA-γGlu-C18 diacid])TETGSGSP-NH2 [Compound 90] |
| 48.8 pM | 4.12 pM | 40.4 pM | 5.68 pM | 102 pM | 3.7 pM | H[Aib]HGTFTSDYSILLEEQAAREFIEWLLAGGPSSGEASHLSTAALGRLSAELHK([AEEA-AEEA-γGlu-C18 diacid])LATLPRTETGSGSP-NH2 [Compound 88] |
